Calls of active or inactive are those of the source. The rule behind the calls is not given here.
Columns and labels:
[1] = Selectivity index, ratio of CC50 for cytotoxicity against human HEK293T cells to EC50 for anti-influenza activity against Influenza A virus A/WSN/33(H1N1) infected in HEK293T cells assessed as reduction in virus-induced cytopathic effect; type: toxicity, cell-based; settings: read-out: Ratio CC50/EC50
[2] = system: Influenza A virus; assay: Anti-influenza activity against Influenza A virus H3N2 infected in HEK293T cells assessed as reduction in virus-induced cytopathic effect incubated for 48 hrs by CCK-8 assay; type: functional, organism-based; settings: H3N2, HEK-293T
[3] = Intrinsic clearance in dog liver microsomes preincubated for 5 mins followed by NADPH addition and measured for 45 mins by LC-MS analysis; type: ADME, Canis lupus familiaris, Microsome; settings: time 50 min, read-out: CLH
[4] = Intrinsic clearance in human liver microsomes preincubated for 5 mins followed by NADPH addition and measured for 45 mins by LC-MS analysis; type: ADME, Microsome; settings: time 50 min, read-out: CLH
[5] = Hepatic clearance in dog liver microsomes preincubated for 5 mins followed by NADPH addition and measured for 45 mins by LC-MS analysis; type: ADME, Canis lupus familiaris, Microsome; settings: time 50 min
[6] = Hepatic clearance in human liver microsomes preincubated for 5 mins followed by NADPH addition and measured for 45 mins by LC-MS analysis; type: ADME, Microsome; settings: time 50 min
[7] = Hepatic extraction ratio in dog liver microsomes preincubated for 5 mins followed by NADPH addition and measured for 45 mins by LC-MS analysis; type: ADME, Canis lupus familiaris, Microsome; settings: time 50 min, read-out: ERH
[8] = Hepatic extraction ratio in human liver microsomes preincubated for 5 mins followed by NADPH addition and measured for 45 mins by LC-MS analysis; type: ADME, Microsome; settings: time 50 min, read-out: ERH
[9] = Stability in human plasma assessed as compound remaining by LC-MS/MS analysis; type: ADME, cell-free
[10] = Stability in human plasma assessed as compound remaining measured after 30 mins by LC-MS/MS analysis; type: ADME, cell-free; settings: read-out: Stability
[11] = Stability in human plasma assessed as compound remaining measured after 60 mins by LC-MS/MS analysis; type: ADME, cell-free; settings: read-out: Stability
[12] = Stability in human plasma assessed as compound remaining measured after 120 mins by LC-MS/MS analysis; type: ADME, cell-free; settings: read-out: Stability
[13] = target: T1, von Hippel-Lindau disease tumor suppressor/Polymerase basic protein 2 (Influenza A virus (strain A/Puerto Rico/8/1934 H1N1)) (UniProt P40337+P03428); assay: PROTAC activity at Influenza A virus A/WSN/33(H1N1) flag tagged Polymerase basic protein 2/VHL (unknown origin) expressed in HEK293T cells assessed as degradation of PB2 expression at 1 ug/ml incubated for 24 hrs by Western blotting analysis; type: cell-based; settings: dose 1.0 µg/ml
T1 sequence (P03428 whole entry, looked up): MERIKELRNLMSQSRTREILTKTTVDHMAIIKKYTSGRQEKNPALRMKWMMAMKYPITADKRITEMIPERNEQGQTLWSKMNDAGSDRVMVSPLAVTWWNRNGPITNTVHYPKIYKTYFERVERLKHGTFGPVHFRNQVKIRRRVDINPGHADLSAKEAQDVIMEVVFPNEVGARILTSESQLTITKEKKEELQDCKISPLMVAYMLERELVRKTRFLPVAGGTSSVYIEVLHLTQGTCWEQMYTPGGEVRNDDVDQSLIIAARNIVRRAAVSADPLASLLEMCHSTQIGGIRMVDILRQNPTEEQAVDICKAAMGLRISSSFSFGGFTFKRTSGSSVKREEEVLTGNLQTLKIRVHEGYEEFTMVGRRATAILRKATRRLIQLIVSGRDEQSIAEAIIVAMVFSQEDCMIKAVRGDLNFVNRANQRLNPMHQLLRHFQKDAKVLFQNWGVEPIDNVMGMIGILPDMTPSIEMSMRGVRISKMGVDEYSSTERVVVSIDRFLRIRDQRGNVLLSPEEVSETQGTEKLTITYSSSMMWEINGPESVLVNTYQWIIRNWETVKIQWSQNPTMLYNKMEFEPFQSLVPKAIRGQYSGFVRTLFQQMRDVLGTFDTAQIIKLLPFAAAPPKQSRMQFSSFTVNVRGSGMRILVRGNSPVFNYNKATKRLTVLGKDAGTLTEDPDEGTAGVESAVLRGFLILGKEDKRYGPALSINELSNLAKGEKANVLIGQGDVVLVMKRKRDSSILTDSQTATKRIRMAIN
T1 sequence (P40337 whole entry, looked up): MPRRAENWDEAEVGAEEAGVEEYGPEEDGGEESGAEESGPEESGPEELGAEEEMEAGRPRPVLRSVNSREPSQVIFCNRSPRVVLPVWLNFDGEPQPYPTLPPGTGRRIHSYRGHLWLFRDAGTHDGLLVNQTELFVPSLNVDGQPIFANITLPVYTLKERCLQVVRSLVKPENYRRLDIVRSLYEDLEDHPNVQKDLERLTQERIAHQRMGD

[14] = target: T1, von Hippel-Lindau disease tumor suppressor/Polymerase basic protein 2 (Influenza A virus (strain A/Puerto Rico/8/1934 H1N1)); assay: PROTAC activity at Influenza A virus A/WSN/33(H1N1) flag tagged Polymerase basic protein 2/VHL (unknown origin) expressed in HEK293T cells assessed as degradation of PB2 expression at 10 ug/ml incubated for 24 hrs by Western blotting analysis; type: cell-based; settings: dose 10.0 µg/ml
[15] = target: von Hippel-Lindau disease tumor suppressor/Polymerase basic protein 1 (Influenza A virus (strain A/Puerto Rico/8/1934 H1N1)) (UniProt P03431+P40337); assay: PROTAC activity at Influenza A virus A/WSN/33(H1N1) flag tagged Polymerase basic protein 1/VHL (unknown origin) expressed in HEK293T cells assessed as degradation of PB1 expression at 0.1 to 10 uM incubated for 24 hrs by Western blotting analysis; type: cell-based; settings: dose 0.1-10 µM
Sequence of von Hippel-Lindau disease tumor suppressor/Polymerase basic protein 1 (Influenza A virus (strain A/Puerto Rico/8/1934 H1N1)) (P03431 whole entry, looked up): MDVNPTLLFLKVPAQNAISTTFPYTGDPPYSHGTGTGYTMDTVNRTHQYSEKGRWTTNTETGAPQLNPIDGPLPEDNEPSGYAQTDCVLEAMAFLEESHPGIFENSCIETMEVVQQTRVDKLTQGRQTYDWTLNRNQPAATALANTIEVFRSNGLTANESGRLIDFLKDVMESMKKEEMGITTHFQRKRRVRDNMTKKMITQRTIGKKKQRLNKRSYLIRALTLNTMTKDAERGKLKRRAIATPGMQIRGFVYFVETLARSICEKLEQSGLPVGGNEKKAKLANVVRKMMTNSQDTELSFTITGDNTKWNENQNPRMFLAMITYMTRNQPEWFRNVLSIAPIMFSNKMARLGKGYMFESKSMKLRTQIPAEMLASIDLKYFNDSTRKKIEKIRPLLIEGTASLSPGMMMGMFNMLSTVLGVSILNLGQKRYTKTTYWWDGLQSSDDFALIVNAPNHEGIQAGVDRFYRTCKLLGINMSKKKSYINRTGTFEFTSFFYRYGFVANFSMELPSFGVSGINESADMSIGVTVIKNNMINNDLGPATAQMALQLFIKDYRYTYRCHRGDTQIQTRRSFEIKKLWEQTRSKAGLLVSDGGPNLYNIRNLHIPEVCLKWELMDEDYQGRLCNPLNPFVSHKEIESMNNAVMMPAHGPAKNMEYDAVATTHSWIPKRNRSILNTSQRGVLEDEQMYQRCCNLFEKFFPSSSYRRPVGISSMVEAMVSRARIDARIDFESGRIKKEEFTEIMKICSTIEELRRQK
Sequence of von Hippel-Lindau disease tumor suppressor/Polymerase basic protein 1 (Influenza A virus (strain A/Puerto Rico/8/1934 H1N1)) (P40337 whole entry, looked up): as the sequence (P40337 whole entry, looked up) above

[16] = target: T1, von Hippel-Lindau disease tumor suppressor/Polymerase basic protein 2 (Influenza A virus (strain A/Puerto Rico/8/1934 H1N1)); assay: PROTAC activity at Influenza A virus A/WSN/33(H1N1) flag tagged Polymerase basic protein 2/VHL (unknown origin) expressed in HEK293T cells assessed as degradation of PB2 expression at 0.1 to 10 uM incubated for 24 hrs by Western blotting analysis; type: cell-based; settings: dose 0.1-10 µM
[17] = target: T2, von Hippel-Lindau disease tumor suppressor/Polymerase acidic protein (Influenza A virus (A/Puerto Rico/8/1934(H1N1))) (UniProt P03433+P40337); assay: PROTAC activity at Influenza A virus A/WSN/33(H1N1) flag tagged Polymerase acidic protein/VHL (unknown origin) expressed in HEK293T cells assessed as degradation of PA expression at 10 uM by Western blotting analysis; type: cell-based; settings: TDE = time-dependent effect
[18] = target: T2, von Hippel-Lindau disease tumor suppressor/Polymerase acidic protein (Influenza A virus (A/Puerto Rico/8/1934(H1N1))); assay: PROTAC activity at Influenza A virus A/WSN/33(H1N1) flag tagged Polymerase acidic protein/VHL (unknown origin) expressed in HEK293T cells assessed as degradation of PA expression at 10 uM incubated for 8 hrs by Western blotting analysis; type: cell-based
[19] = target: T2, von Hippel-Lindau disease tumor suppressor/Polymerase acidic protein (Influenza A virus (A/Puerto Rico/8/1934(H1N1))); assay: PROTAC activity at Influenza A virus A/WSN/33(H1N1) flag tagged Polymerase acidic protein/VHL (unknown origin) expressed in HEK293T cells assessed as degradation of PA expression incubated for 2 to 10 hrs in presence of CHX by Western blotting analysis; type: cell-based; settings: time 2-10 hrs
[20] = target: T2, von Hippel-Lindau disease tumor suppressor/Polymerase acidic protein (Influenza A virus (A/Puerto Rico/8/1934(H1N1))); assay: PROTAC activity at Influenza A virus A/WSN/33(H1N1) flag tagged Polymerase acidic protein/VHL (unknown origin) expressed in HEK293T cells assessed as degradation of PA expression at 5 uM incubated for 24 hrs in presence of dipeptide RA by Western blotting analysis; type: cell-based
[21] = target: T2, von Hippel-Lindau disease tumor suppressor/Polymerase acidic protein (Influenza A virus (A/Puerto Rico/8/1934(H1N1))); assay: PROTAC activity at Influenza A virus A/WSN/33(H1N1) flag tagged Polymerase acidic protein/VHL (unknown origin) expressed in HEK293T cells assessed as degradation of PA expression at 5 uM incubated for 24 hrs in presence of 3-methyladenine by Western blotting analysis; type: cell-based
[22] = Binding affinity to Influenza A virus A/WSN/33(H1N1) flag tagged Polymerase acidic protein assessed as dissociation constant incubated for 48 hrs by microscale thermophoresis assay; settings: hek293t
[23] = Cytotoxicity against dog MDCK cells assessed as reduction in cell viability incubated for 48 hrs by CCK-8 assay; type: toxicity, cell-based, Canis lupus familiaris
[24] = system: Influenza A virus; assay: Anti-influenza activity against Influenza A virus A/PR/8/34 (H1N1) infected in MDCK cells assessed as inhibition of viral growth at 0.8 nM incubated for 48 hrs by luciferase assay relative to control; type: functional
[25] = system: Enterovirus; assay: Antiviral activity against Enterovirus 71 infected in RD cells assessed as inhibition of viral replication incubated for 24 hrs by CCK-8 assay; type: functional, organism-based

## CC(C)(C)OC(=O)NCCCC[C@H](NC(=O)OC(C)(C)C)C(=O)NCCCCCCCC(=O)Nc1ccc(NC(=S)NC(=O)c2ccc(C(C)(C)C)cc2)cc1
[1]
  selectivity ratio: > 6670
[2]
  EC50: 36 nM
[3]
  CLint scaled: 177 mL/min/kg
[4]
  CLint scaled: 137 mL/min/kg
[5]
  CLhep predicted: 26.3 mL/min/kg
[6]
  CLhep predicted: 18 mL/min/kg
[7]
  hepatic extraction ratio at 0.75 h: 0.851
[8]
  hepatic extraction ratio at 0.75 h: 0.588
[9]
  Stability: 100%
[10]
  remaining at 0.5 h: 108%
[11]
  remaining at 1 h: 96.9%
[12]
  remaining at 2 h: 72%
[13]
  Activity: inactive
[14]
  Activity: inactive
[15]
  Activity: inactive
[16]
  Activity: inactive
[17]
  Activity: Tde
[18]
  Activity: Active
[19]
  Activity: Active
[20]
  Activity: inactive
[21]
  Activity: inactive
[22]
  Kd: 720 nM
[23]
  CC50 at 48 h: > 200000 nM
[24]
  inhibition at 0.0008 µM: 82%
[25]
  Activity: Active

Reference: ChEMBL document CHEMBL5512674, “Novel Acyl Thiourea-Based Hydrophobic Tagging Degraders Exert Potent Anti-Influenza Activity through Two Distinct Endonuclease Polymerase Acidic-Targeted Degradation Pathways” (J Med Chem, 2024)
